Tests used:
Format in all cases: cell-based, human
SSP1 mRNA in HepG2 cell = assay: Change of SSP1 mRNA expression in treated HepG2 cells (TaqMan PCR); conditions: 24 hours in serum free D-MEM medium with the agent, 25-OH 5 μg/ml, βVLDL 100 μg-TC/ml, HPβCD 5 mM, 10% FBS
Method: For conducting more detailed analysis of SSP1 expression, TaqMan PCR conditions were set. The primers used were Upper Primer (SEQ ID NO: 54) and Lower Primer (SEQ ID NO: 55), and the probe used for detection was shown by SEQ ID NO: 56. In TaqMan PCR, 250 nM of Upper Primer, 250 nM of Lower Primer, 75 nM of the probe and template DNA were mixed with TaqMan Universal Mixture, and SSP1 gene was quantified by real time PCR of 40 cycle of 15 seconds at 95° C. and 60 seconds at 60° C.
After HepG2 cell was treated as shown in FIG. 7 for one day, RNA was extracted to perform a reverse transcription using oligo-dT as a primer. Then, change in the expression amount of SSP1 mRNA was analyzed using the quantification system of expression amount of SSP1 mRNA as shown in Example 6. Specifically, HepG2 cells were cultured on a 24-well plate, and incubated for 24 hours in a serum free D-MEM medium in the presence of 10% FBS (10% FBS), 5 μg/ml of 25-hydroxycholesterol (25-OH), 100 μg-TC/ml of rabbit βVLDL (βVLDL), 1 μM of Atrvastatin (ATOS), 5 mM hydroxypropyl-β-cyclodextiin (HPβCD), 10 μM progesterone (Progesterone) or 100 μM dibutyl-cyclic AMP (db-cAMP). The expression amount of SSP1 mRNA in RNA extracted from these cells was measured as a rate (%) to GAPDH mRNA measured as the internal standard.

SSP2 mRNA in IMR-32 cell = assay: Differentiation-dependent induction of SSP2 mRNA expression in IMR-32 cells (TaqMan PCR); conditions: 10 μM BrDU, cultured for 14 days, RNA at 7 and 14 days, cells differentiated to neuron in morphology
Method: For conducting more detailed analysis of SSP2 expression, TaqMan PCR conditions were set. The primers used were Upper Primer (SEQ ID NO: 57) and Lower Primer (SEQ ID NO: 58), and the probe used for detection was shown by SEQ ID NO: 59. In TaqMan PCR, 250 nM of Upper Primer, 250 nM of Lower Primer, 75 nM of the probe and template DNA were mixed with TaqMan Universal Mixture, and SSP2 gene was quantified by real time PCR of 40 cycle of 15 seconds at 95° C. and 60 seconds at 60° C. IMR-32 cells were cultured overnight at […] cells/well (6 well plate), and cultured for 14 days under four different conditions of 1 mM dibutyl cycle AMP (db-cAMP), 10 μM Bromo deoxyuridine (BrDU), 1 mM db-cAMP/10 μM BrDU and no differentiation-inducing agent. RNA was extracted from cells at 7 days and 14 days, then, SSP2 mRNA was quantified by TaqMan PCR. Induction of expression of SSP2 mRNA was recognized in cells which were differentiated to neuron in terms of morphology by 10 μM BrDU (FIG. 8).

[1] = test system: stable SSP1-overexpressing HepG2 cell; assay: ApoB lipoprotein secretion in stable SSP1-overexpressing HepG2 cells (sandwich EIA); conditions: SSP1 stable expression HepG2 cell strains vs parent HepG2, 24 hours, 5% LPDS + oleate (BSA complex)
Method: SSP1 gene was subcloned into pcDNA3.1(+)-myc vector (Invitrogen), and the thus obtained expression plasmid for eucaryotic cell having the C-terminal Myc-tag was transfected into HepG2 cells by a lipofection method, and these cells were cultured in the presence of 500 ug/ml G418 to obtain G418-resistant strains. From these strains, 4 stable cell strains highly expressing SSP1 mRNA were obtained using the quantification, of expression amount of SSP1 mRNA by TaqMan PCR. A gene encoding amino acid no. 33-273 of SSP1 protein was subcloned into pET 21(+) vector (Novagen), and using the SSP1 partial protein produced in Escherichia coli as an antigen, a polyclonal antibody was prepared according to an ordinary method. The amino acid sequence of the antigen protein is shown by SEQ ID NO: (antigen AP-1). Using this antibody (AP-1), the expression of SSP1 protein in cell-extract of the four stable SSP1-expressing cell strains was investigated by a Western blotting method. […] For quantification of ApoB lipoprotein, a sandwich EIA method using an anti-human apoB goat polyclonal antibody and an anti-human apoB mouse monoclonal antibody was carried out. In the quantification, human LDL was used as a standard substance, and the concentration of ApoB lipoprotein secreted in the supernatant was represented as an equivalent human LDL value. […]

Compound | change in the expression amount of SSP1 mRNA (rate to GAPDH mRNA) (SSP1 mRNA in HepG2 cell) | further results
C[C@H](CCCC(C)(C)O)[C@H]1CC[C@H]2[C@@H]3CC=C4C[C@@H](O)CC[C@]4(C)[C@H]3CC[C@]12C [25OH, 25-hydroxycholesterol] | decrease | 
O=c1[nH]c(=O)n([C@H]2C[C@H](O)[C@@H](CO)O2)cc1Br [BrDU, Bromo deoxyuridine] |  | induction of expression of SSP2 mRNA (SSP2 mRNA in IMR-32 cell): Induction
CCCCCCCC/C=C\CCCCCCCC(=O)O [oleic acid] |  | activity to promote apoB lipoprotein secretion by addition of oleic acid [1]: disappeared
hydroxypropyl-β-cyclodextiin [HPβCD] | increase | 

From patent US20030125253A1, “Novel protein, process for producing the same and use therof” (priority 2002, published 2003)
